Assay results as given in US20170027973A1, “MODULARION OF INVARIANT NATURAL KILLER T CELLS IN THE TREATMENT OF SEPSIS” (LONDON HEALTH SCIENCES CENTRE RESEARCH INC., priority 2014, published 2017).

Key:
[1] = test system: splenic T, B, NK cells and macrophages; test: Annexin V / 7-AAD flow cytometry of apoptotic splenic cell populations in septic B6 mice; assay type: in vivo, mouse; conditions: for NK cell apoptosis / frequency of apoptotic macrophages: spleen; for frequency of apoptotic macrophages: compared to vehicle-treated mice
From the text: FIG. 7: Analysis of apoptotic cell populations in the spleens of septic B6 mice. Splenocytes from sham and septic B6 mice treated with OCH, KRN7000, or vehicle were stained for T, B, and Natural Killer (NK) cells, and macrophages, and further stained for Annexin V (a marker for early apoptosis) and 7-AAD viability dye. Early and late apoptotic cells (Annexin V+7AAD- and Annexin V+7AAD+ cells respectively) were quantified and compared between treatments. […] (n=3-6 mice per group). *p<0.05, **p<0.01, ***p<0.001 by one-way ANOVA with post-hoc Tukey's multiple comparison test. Data are representative of 3 independent experiments.
FIG. 8: Gating strategy to identify the percentage of apoptotic and necrotic immune cell populations. CD3-APC is shown as an example, but the same strategy was used for macrophages (F480-APC), B cells (B220-APC), and Natural Killer (NK) cells (NK1.1-PE).
(§1) Mouse hepatic, splenic, and omental cells (1×106), and human PBMCs (1×106) were washed with cold FACS buffer [PBS+2% fetal bovine serum (FBS)+0.1% sodium azide] and incubated with 5 μg/ml anti-mouse CD16/CD32 mAb (clone 2•4G2, Fc-block, eBiosciences) for 20 min on ice before staining with fluorescent monoclonal antibodies (mAbs) diluted in FACS buffer at 4° C. for 30-40 min. Cells were then washed and flow cytometry was performed using FACSCanto II (BD) with FlowJo software (Treestar).

iNKT cells = test: Flow cytometric detection of iNKT and T cells in spleen and liver of septic B6 mice; assay type: in vivo, mouse; conditions: 24 hours
Protocol: FIG. 10: Effect of glycolipid agonists on cytokine expression in naïve B6 mice, and on iNKT cells in septic B6 mice. (a) Naïve B6 mice were injected i.p. with 4 μg OCH or KRN7000 or C20:2, and bled at 2, 12, and 24 hours post-injection. Serum samples were assayed for IL-4 and IFN-γ by enzyme-linked immunosorbent assay (ELISA). […] Vehicle-treated mice had cytokine levels below limits of detection. (b) B6 mice were given an intraperitoneal injection of fecal slurry (500 μL of a 90 mg/mL solution) to induce IAS and concomitantly treated with 4 μg of vehicle, OCH, or KRN7000. After 24 hours, mice were sacrificed, and cell suspensions from the liver and spleen were stained for the flow cytometric detection of CD1d tetramer+ TCRβ+iNKT cells.
To obtain hepatic lymphoid mononuclear cells (MNCs), mice were euthanized, and livers were flushed with sterile PBS before they were harvested and pressed through a 40-μm nylon mesh. The resulting homogenate was washed in cold PBS, resuspended in a 33.75% Percoll PLUS solution (GE Healthcare Bio-Sciences) and spun at 700×g for 12 min at room temperature. The pelleted cells were then treated with ACK lysis buffer to remove erythrocytes and washed in cold PBS prior to staining. To obtain omental lymphoid MNCs, the spleen, pancreas, and omentum were removed en-bloc and suspended in ice-cold PBS. The omenta floated above the spleen-pancreas complex and were removed and processed similar to the liver. Spleens were processed with a tissue homogenizer, and the resulting homogenate was washed in cold PBS. The pelleted cells were treated with ACK lysis buffer for 4 minutes to remove erythrocytes, and washed in cold PBS prior to staining.
as §1, with “Cells were then washed and flow cytometry was performed using FACSCanto II (BD) with FlowJo software (Treestar).” left out

[2] = test system: bacterial counts in blood and multiple organs; test: Microbial growth (CFU) from tissue homogenates and peripheral blood of septic mice; assay type: in vivo, mouse; conditions: septic B6 mice; compared between vehicle, OCH and KRN7000 treatments
Protocol: Whole hearts, lungs (left and right), kidneys (left and right), spleen, and liver were removed from euthanized mice and homogenized in 5 mL of PBS. Homogenates were serially diluted 1:10 in PBS and plated on bovine heart infusion (BHI) agar. Plates were grown aerobically at 37° C. overnight to determine tissue colony-forming units (CFU). Intra-cardiac blood (10 μL) was collected in a heparinized syringe from the right ventricle, serially diluted 1:10 with PBS, and plated on BHIagar to determine blood CFU.

inflammatory cytokines = test: Multiplex cytokine quantification in sera and spleens of septic B6 mice; assay type: in vivo, mouse
Protocol: FIG. 5: Cytokine levels in the sera and spleens of septic B6 mice. […] Concentrations of iNKT cell-specific cytokines are shown from sera (b) and spleen homogenates (c) of septic mice treated with vehicle, OCH, or KRN7000 (n=4-8 per group). Concentrations of cytokines are shown in pg/mL. *p<0.05, **p<0.01, ***p<0.001 by one-way ANOVA with post-hoc Tukey's multiple comparison test. Data are representative of at least three independent experiments.
Serum was analyzed by bead-based multiplex assay for 32 different cytokines, chemokines, and growth factors (Eve Technologies, Calgary, Alberta, Canada) including granulocyte-colony stimulating factor (G-CSF), granulocyte macrophage-colony stimulating factor (GM-CSF), interferon-gamma (IFN-γ), interleukin (IL)-1α, IL-1β, IL-2, IL-3, IL-4, IL-5, IL-6, IL-7, IL-9, IL-10, IL-12 (p40), IL-12 (p70), IL-13, IL-15, IL-17A, IP-10, keratinocyte chemo-attractant (KC), leukemia inhibitory factor (LIF), lipopolysaccharide-induced CXC chemokine (LIX), monocyte chemotactic protein (MCP)-1, monocyte-colony stimulating factor (M-CSF), monokine induced by gamma interferon (MIG), macrophage inflammatory protein (MIP)-1α, MIP-1β, MIP-2, Regulated on Activation, Normal T cell Expressed and Secreted (RANTES), tumour necrosis factor (TNF)-α, and vascular endothelial growth factor (VEGF). Multiplex data was visualized using a cytokine heat map that was generated using Matrix2png (33).

invariant TCR = conditions: OCH compared to KRN7000; cited from earlier work
[3] = KRN7000 compared to OCH-treated group
[4] = compared to vehicle- and KRN7000-treated mice

SMILES: CCCCCCCCCCCCCCCCCCCCCCCCCC(=O)N[C@@H](CO[C@H]1O[C@H](CO)[C@H](O)[C@H](O)[C@H]1O)[C@H](O)[C@H](O)CCCCCCCCCCCCCC [KRN7000, reference compound]
- NK cell apoptosis [1]: trend toward reduced apoptosis
- frequency of apoptotic macrophages [1]: reduced the frequency of apoptosis significantly
- detection of iNKT cells versus OCH treatment (iNKT cells): significantly lower
- detection of iNKT cells versus vehicle (iNKT cells): significantly reduced
- microbial load (bacterial counts in blood and multiple organs) [2]: similar
- spleen IFN-γ (inflammatory cytokines; [3]): significantly elevated
- spleen IL-3 (inflammatory cytokines; [3]): significantly elevated
- spleen IL-4 (inflammatory cytokines; [3]): significantly elevated
- spleen IL-17 (inflammatory cytokines; [3]): significantly elevated
- spleen TNF-α (inflammatory cytokines; [3]): significantly elevated

SMILES: CCCCCCCCCCCCCCCCCCCCCCCC(=O)N[C@@H](COC1OC(CO)C(O)C(O)C1O)[C@H](O)[C@H](O)CCCCC (stereo partly shown) [OCH]
- binding affinity for the invariant TCR (invariant TCR): lower
- apoptosis of splenic B cells [1, 4]: significantly reduced
- apoptosis of splenic T cells [1, 4]: significantly reduced
- NK cell apoptosis [1]: appeared to be reduced
- frequency of apoptotic macrophages [1]: reduced the frequency of apoptosis significantly
- detection of iNKT cells versus vehicle (iNKT cells): significantly reduced
- microbial load (bacterial counts in blood and multiple organs) [2]: did not worsen
- serum mean concentration of IL-17 (inflammatory cytokines; OCH compared to KRN7000-treated): significantly lower
- serum concentration of IL-13 (inflammatory cytokines; compared to KRN7000-treated and vehicle-treated): higher
